Results on 16 compounds are retold here after US20200206233A1 (INTEGRAL BIOSCIENCES PRIVATE LIMITED, priority 2018, published 2020).

Some results are limits rather than exact numbers.

What all share (type): biochemical
Test [1] addresses T1, IDH2 mutant (R140Q) (Homo sapiens, UniProt P48735, R140Q).
T1 construct: purchased BPS Bioscience 71100-2
T1 sequence (P48735 40-452 R140Q): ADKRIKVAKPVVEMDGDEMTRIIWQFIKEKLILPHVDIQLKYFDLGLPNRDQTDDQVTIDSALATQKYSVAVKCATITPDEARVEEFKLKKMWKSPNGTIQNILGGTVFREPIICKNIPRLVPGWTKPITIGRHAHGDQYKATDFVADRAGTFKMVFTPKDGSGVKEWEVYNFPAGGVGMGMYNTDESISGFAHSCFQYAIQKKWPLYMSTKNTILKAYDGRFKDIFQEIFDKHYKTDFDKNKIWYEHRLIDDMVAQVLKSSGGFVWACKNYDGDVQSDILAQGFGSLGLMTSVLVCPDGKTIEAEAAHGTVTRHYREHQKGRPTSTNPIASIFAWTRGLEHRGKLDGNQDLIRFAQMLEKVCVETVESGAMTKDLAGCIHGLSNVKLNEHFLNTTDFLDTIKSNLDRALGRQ
Nature of the test: Mutant IDH2-R140Q Fluorescence Assay (Resazurin based). The following applies: 5 nM IDH2 R140Q, 4 hr pre-incubation, 1 mM α-ketoglutarate, 5 μM NADPH, 2 h. The method, then: IC50 values of compounds against IDH2 mutant (R140Q) were determined by Resazurin based Fluorescence assay. Assay was performed in Buffer (25 mM Tris HCl, 150 mM NaCl, 10 mM MgCl2, 0.03% BSA, 2 mM 1-mercaptoethanol) where total reaction volume was 12.5 μL in low-volume 384-well plates (Cat #4511, Corning). Serially diluted compounds (3-fold) were pre-incubated with IDH2 R140Q mutant enzyme (5 nM; Cat #71100-2, BPS Bioscience) for 4 hr at RT (25° C.) followed by addition of cocktail of α-ketoglutarate (1 mM; Cat #75892-25G, Sigma), and NADPH (5 μM; Cat # N1630-100MG, Sigma) with buffer in dark at room temperature for 2 h. After 2 h incubation, 6.25 μL detection solution containing Resazurin (30 μM; (Cat #62758-13-8, Sigma) and Diaphorase (40 ug/ml; Cat # D2197-300UN, Sigma) in buffer was added and incubated for 15 min. Readings were taken in a Synergy Neo Plate reader (BioTek, Winooski) at single excitation of 540 nm and emission at 590 nm respectively.
The % activity of test samples was calculated as (Sample−Min)×100/(Max−Min). [Max: DMSO control, complete reaction with enzyme with DMSO and Min: No enzyme with DMSO]. Percent inhibition (100−% activity) was fitted to the “four-parameter logistic model” in XLfit for determination of IC50 values.

In test [2] the target is T2, IDH1 mutant (R132H) (Homo sapiens, UniProt O75874, R132H).
T2 construct: purchased BPS Bioscience 71099-2
T2 sequence (O75874 whole entry R132H): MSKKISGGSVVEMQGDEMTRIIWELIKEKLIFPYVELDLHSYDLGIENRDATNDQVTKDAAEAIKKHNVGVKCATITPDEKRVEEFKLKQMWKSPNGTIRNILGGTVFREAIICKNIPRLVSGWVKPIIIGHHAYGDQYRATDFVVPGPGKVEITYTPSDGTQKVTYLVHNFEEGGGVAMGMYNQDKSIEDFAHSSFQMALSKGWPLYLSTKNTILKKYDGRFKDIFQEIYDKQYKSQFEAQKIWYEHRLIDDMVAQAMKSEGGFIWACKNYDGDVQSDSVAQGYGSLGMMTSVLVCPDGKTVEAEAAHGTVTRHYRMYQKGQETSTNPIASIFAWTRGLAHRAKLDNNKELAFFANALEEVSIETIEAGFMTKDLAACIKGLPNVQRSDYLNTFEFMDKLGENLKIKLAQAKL
The test is described as follows: Mutant IDH1-R132H Fluorescence Assay (Resazurin based). The following applies: 10 nM IDH1 R132H, 4 mM α-ketoglutarate, NADPH, 1.5 h at room temperature. The method, then:
IC50 values of compounds against IDH1 mutant (R132H) was determined by Resazurin based Fluorescence assay. Assays were performed in Buffer (25 mM Tris HCl, 150 mM NaCl, 10 mM MgCl2, 0.03% BSA, 2 mM 1-mercaptoethanol) where total reaction volume was 12.5 μL in low-volume 384-well plates (Cat #4511, Corning). Serially diluted compounds (3-fold) were incubated with cocktail of α-ketoglutarate (4 mM; Cat #75892-25G, Sigma), NADPH ([…]; Cat # N1630-100MG, Sigma) and buffer for 5 min, following IDH1 R132H mutant (10 nM; Cat #71099-2, BPS Bioscience) was added and incubated in dark at room temperature for 1.5 h. After 1.5 h, 6.25 μL detection solution containing Resazurin ([…]; (Cat #62758-13-8, Sigma) and Diaphorase (40 ug/ml; Cat # D2197-300UN, Sigma) in buffer was added and incubated for 15 min. Readings were taken in a Synergy Neo Plate reader (BioTek, Winooski) at single excitation of 540 nm and emission at 590 nm respectively.
(§1) The % (percent) activity of test samples was calculated as (Sample−Min)×100/(Max−Min). [Max: DMSO control, complete reaction with enzyme with DMSO and Min: No enzyme with DMSO]. Percent inhibition (100−% activity) was fitted to the “four-parameter logistic model” in XLfit for determination of IC50 values.

For test [3], the target named is T3, IDH1-WT (Homo sapiens, UniProt O75874).
T3 construct: purchased BPS Bioscience 71075-2
T3 sequence (O75874 whole entry): as the sequence (O75874 whole entry R132H) above, with H132R counted along it
The test is described as follows: IDH1-WT Fluorescence Assay (Resazurin based). The following applies: 1 nM IDH1-WT, 200 μM isocitrate, 15 μM NADP+, 30 min at room temperature. The method, then:
IC50 values of compounds against IDH1-WT was determined by Resazurin based Fluorescence assay. Assays were performed in Buffer (50 mM Tris HCl, 10 mM MgCl2, 0.03% BSA, 2 mM ß-mercaptoethanol) where total reaction volume was 25 μL in low-volume 96-well plates. Serially diluted compounds (3-fold) in DMSO (0.5% in final reaction) were incubated with cocktail of isocitrate (200 μM; Cat # I1252-1G, Sigma), NADP^+ (15 μM; Cat # N0505-500MG, Sigma) and buffer for 5 min, following addition of IDH1-WT enzyme (1 nM; Cat #71075-2, BPS Bioscience) and incubated in dark at room temperature for 30 min. After that, 12.5 μL detection solution containing Resazurin (60 μM; Cat #62758-13-8, Sigma) and Diaphorase (40 μg/ml; Cat # D2197-300UN, Sigma) in buffer was added and incubated for 15 min. Readings were taken using a Synergy Neo Plate reader (BioTek, Winooski) at single excitation of 540 nm and emission at 590 nm respectively.
as §1
On the technique in general: Resazurin is reduced to fluorescent resorufin, in cell work by metabolically active cells.

The IC50 is the concentration that inhibits the measured activity by half. `Cc1cc(-c2ccc([C@H](C)Nc3ncnc(N4C(=O)OC[C@@H]4C(C)C)n3)nc2)ccc1F` [Compound 1.3, (S)-3-(4-((S)-1-(5-(4-fluoro-3-methylphenyl)pyridin-2-yl)ethylamino)-1,3,5-triazin-2-yl)-4-isopropyloxazolidin-2-one]: the IC50 in test [1] was greater than 30 µM; in test [2] it was 0.83 µM; in test [3] it was greater than 30 µM.
Take `Cc1cc(-c2cnc([C@H](C)Nc3ncnc(N4C(=O)OC[C@@H]4C(C)C)n3)nc2)ccc1F` [Compound 1.1, (S)-3-(4-((S)-1-(5-(4-fluoro-3-methylphenyl)pyrimidin-2-yl)ethylamino)-1,3,5-triazin-2-yl)-4-isopropyloxazolidin-2-one]: the IC50 in test [1] was greater than 50 µM; in test [2], 2.77 µM; in test [3] it was greater than 50 µM.
As for `CC(C)[C@H]1COC(=O)N1c1ncnc(N[C@@H](C)c2cn(-c3ccc(C(F)(F)F)cc3)cn2)n1` [Compound 1.5, (S)-4-isopropyl-3-(4-((S)-1-(1-(4-(trifluoromethyl)phenyl)-1H-imidazol-4-yl)ethylamino)-1,3,5-triazin-2-yl)oxazolidin-2-one], the figures for the half-inhibitory concentration (IC50) in test [1], in test [2] and in test [3] were greater than 50 µM, 0.575 µM and greater than 30 µM, respectively.
`CC(C)[C@H]1COC(=O)N1c1ncnc(N[C@@H](C)c2ccc(Oc3ccccc3)cc2)n1` [Compound 1.9, (S)-4-isopropyl-3-(4-((S)-1-(4-phenoxyphenyl)ethylamino)-1,3,5-triazin-2-yl)oxazolidin-2-one]: the 50% inhibitory concentration (IC50) in test [1] was greater than 50 µM; in test [2], 0.642 µM; in test [3], greater than 30 µM.
The corresponding values for `CC(C)[C@H]1COC(=O)N1c1ncnc(N[C@@H](C)c2ccc(Oc3ccccc3)cn2)n1` [Compound 1.19, (S)-4-isopropyl-3-(4-((S)-1-(5-phenoxypyridin-2-yl)ethylamino)-1,3,5-triazin-2-yl)oxazolidin-2-one] are greater than 50 µM, 1.66 µM and greater than 50 µM.
Regarding `CC[C@H]1COC(=O)N1c1nc(C)nc(N[C@@H](C)c2cc3cc(Br)ccc3[nH]c2=O)n1` [Compound 1.66, (S)-3-(4-((S)-1-(6-bromo-2-oxo-1,2-dihydroquinolin-3-yl)ethylamino)-6-methyl-1,3,5-triazin-2-yl)-4-ethyloxazolidin-2-one], the IC50 in test [1] is greater than 50 µM; in test [2], 0.328 µM; in test [3] it was greater than 50 µM.
Regarding `CC[C@H]1COC(=O)N1c1nc(C)nc(N[C@@H](C)c2ccc(Oc3ccc4ccccc4c3)cc2)n1` [Compound 1.94, (S)-4-ethyl-3-(4-methyl-6-((S)-1-(4-(naphthalen-2-yloxy)phenyl)ethylamino)-1,3,5-triazin-2-yl)oxazolidin-2-one], the half-inhibitory concentration (IC50) was greater than 50 µM in test [1], 0.52 µM in test [2] and greater than 50 µM in test [3].
For the compound `CC[C@H]1COC(=O)N1c1nc(C)nc(N[C@@H](C)c2ccc(Oc3ccc(F)cc3Br)cc2)n1` [Compound 1.78, (S)-3-(4-((S)-1-(4-(2-bromo-4-fluorophenoxy)phenyl)ethylamino)-6-methyl-1,3,5-triazin-2-yl)-4-ethyloxazolidin-2-one], the IC50 was greater than 50 µM in test [1], 0.44 µM in test [2] and greater than 50 µM in test [3].
On to `CC[C@H]1COC(=O)N1c1nc(C)nc(N[C@H](C)c2cc3cc(Cl)c(OC(C)C)cc3[nH]c2=O)n1` [Compound 1.105, (S)-3-(4-((R)-1-(6-chloro-7-isopropoxy-2-oxo-1,2-dihydroquinolin-3-yl)ethylamino)-6-methyl-1,3,5-triazin-2-yl)-4-ethyloxazolidin-2-one], for which the half-inhibitory concentration (IC50) in test [1] was greater than 50 µM; in test [2], 0.66 µM; in test [3], greater than 50 µM.
Consider `CC(C)[C@H]1COC(=O)N1c1ncnc(N[C@@H](C)c2ccc(-c3ccnc(C(F)(F)F)c3)cn2)n1` [Compound 1.11, (S)-4-isopropyl-3-(4-((S)-1-(2′-(trifluoromethyl)-3,4′-bipyridin-6-yl)ethylamino)-1,3,5-triazin-2-yl)oxazolidin-2-one], for which the IC50 in test [1] was greater than 50 µM; in test [2] it was 11.4 µM.
For `CC(C)[C@H]1COC(=O)N1c1ncnc(N[C@H](C)c2ccc(Cl)c(Cl)c2)n1` [Compound 1.6, (S)-3-(4-((R)-1-(3,4-dichlorophenyl)ethylamino)-1,3,5-triazin-2-yl)-4-isopropyloxazolidin-2-one], the IC50 in test [2] and in test [3] was greater than 30 µM in each case.
Consider `CC(C)[C@H]1COC(=O)N1c1ncnc(N[C@@H](C)c2ccc(-c3ccc(F)cc3)cn2)n1` [Compound 1.12, (S)-3-(4-((S)-1-(5-(4-fluorophenyl)pyridin-2-yl)ethylamino)-1,3,5-triazin-2-yl)-4-isopropyloxazolidin-2-one], for which the IC50 in test [1] was greater than 50 µM; in test [2], 9.01 µM.
Turning to `Cc1cc(-c2cnc([C@@H](C)Nc3ncnc(N4C(=O)OC[C@@H]4C(C)C)n3)nc2)ccc1F` [Compound 1.2, (4S)-3-(4-{[(1R)-1-[5-(4-fluoro-3-methylphenyl)pyrimidin-2-yl]ethyl]amino}-1,3,5-triazin-2-yl)-4-(propan-2-yl)-1,3-oxazolidin-2-one], the 50% inhibitory concentration (IC50) in test [2] and in test [3] was greater than 50 µM each time.
Consider `CC[C@H]1COC(=O)N1c1nc(C)nc(N[C@H](C)c2ccc(Oc3ccccc3)cn2)n1` [Compound 1.76, (S)-4-ethyl-3-(4-methyl-6-((R)-1-(5-phenoxypyridin-2-yl)ethylamino)-1,3,5-triazin-2-yl)oxazolidin-2-one], for which the IC50 in test [2] is greater than 23.3 µM.
Take `CC[C@H]1COC(=O)N1c1nc(N[C@@H](C)c2ccc(Oc3ccccc3)cc2)nc(N(C)C)n1` [Compound 1.63, (S)-3-(4-(dimethylamino)-6-((S)-1-(4-phenoxyphenyl)ethylamino)-1,3,5-triazin-2-yl)-4-ethyloxazolidin-2-one]: in test [2], the IC50 came to 2.4 µM.
Turning to `CC[C@H]1COC(=O)N1c1nc(C)nc(N[C@@H](C)c2cc3ccccc3[nH]c2=O)n1` [Compound 1.45, (S)-4-ethyl-3-(4-methyl-6-((S)-1-(2-oxo-1,2-dihydroquinolin-3-yl)ethylamino)-1,3,5-triazin-2-yl)oxazolidin-2-one], the IC50 in test [2] amounted to 1.79 µM.
